Experimental data as given in US20040170669A1, “Feed rations and methods of feeding growing ruminants” (priority 2002, published 2004).
Marks after values point to notes of the source that are not given here. Each block holds one compound with its values, some of them ahead of it.

What was measured:
[1] = 112-day feeding trial: growing beef cattle fed bermudagrass hay plus molasses-based supplements with corn gluten meal or Alimet; format: in vivo, Angus-Brahman crossbred cattle; conditions: for Liquid supplement refusal: molasses based supplement remaining from last feeding: one value per feeding date; for BCS change (0-112 days): body condition score; for Added gain: over control; for TDN consumed: total digestible nutrients
Method: An experiment was conducted to study the effect of increasing quantities of methionine from corn gluten meal, an 88% free acid solution of 2-hydroxy-4-(methylthio)butanoic acid sold under the trademark Alimet® (Novus International, Inc., St. Louis, Mo.), on the performance of growing beef cattle fed bermuda grass hay supplemented with molasses-based supplements. The experiment evaluated the effects of adding corn gluten meal or Alimet® to diets of hay supplemented with molasses-based supplements fed to growing beef cattle.
This experiment evaluated corn gluten meal and Alimet® fed to growing beef cattle at four levels to provide 0, 2, 4, and 6 gm/day of added bypass total sulfur amino acids (TSAA) assuming a 40% bypass of Alimet®. An […] treatment was formulated to provide 8 gm/day of added bypass TSAA from Alimet®. Both TSAA sources were provided in a liquid supplement slurry containing 82% fortified molasses (fortified with ‘12% crude protein, minerals, vitamins) and 18% ground corn or corn gluten meal. Corn gluten meal replaced corn in the supplement keeping the proportion of dry ingredients in the supplement similar across TSAA sources and levels. All supplements were offered to growing cattle to provide 3.28 lb/day of total digestible nutrients (TDN). Supplements were formulated to provide adequate nitrogen in the form of rumen degradable intake protein (DIP) with 0.18 lb DIP provided for each pound of TDN. Much of the DIP in supplements was provided by urea.
This experiment was conducted at the Santa Fe Beef Unit located near Gainesville. Thirty-two pens (4 head/pen) of Angus-Brahman crossbred cattle (9-12 months of age) were assigned randomly within sex and breed type. The calves averaged 610 lb and calves were in excellent body condition (BCS 5.8) at the start of the trial. Each pen was assigned two steers and two heifers. These 32 pens were randomly assigned to the 8 treatments. Each pen was a two-acre pasture and most grass was grazed off at the start of the trial but warm weather allowed some grass growth during February and March. Molasses slurries were fed on two days each week (equivalent amount for 3 or 4 days at each feeding) at the equivalent daily rate. Molasses slurries were hand mixed in each pen and fed in open troughs. Alimet® was pre-weighed in the laboratory and mixed in the supplement of the assigned pen at each feeding. Bermuda grass hay was offered ad libitum in hay rings outside (no shelter) and molasses slurries were limit fed during the 112-day trial (December thru April). Hay not consumed was collected, weighed, sampled (dry matter analyzed), and removed from the pens every 6 to 8 weeks during the trial. Water and a mineral-vitamin supplement were offered ad libitum.
Supplement consumption, hay consumption, full weight, shrunk weight (beginning and end only), height, body condition, and blood urea (2 calves/pen) were measured at 28-day intervals during the 112-day trial. Supplement ingredients were sampled twice monthly and each hay bale was weighed and sampled prior to feeding. Supplement ingredients were analyzed for dry matter, organic matter, crude protein, bypass protein, amino acids, and minerals. Hay samples were analyzed for dry matter, organic matter, crude protein, amino acids, in vitro organic matter digestibility, neutral detergent fiber, and minerals.

[2] = 0 to 6 month old calves, hay plus compound feed; cited from earlier work
[3] = 2 gm bypass TSAA/d (Alimet 5.7 g/d)
[4] = 4 gm bypass TSAA/d (Alimet 11.4 g/d)
[5] = 6 gm bypass TSAA/d (Alimet 17 g/d)
[6] = 8 gm bypass TSAA/d (Alimet 22.7 g/d)

Liquid supplement refusal: molasses based supplement remaining from last feeding ([1]; Alimet 5.7 g/d, pen 1): 25 pounds
Liquid supplement refusal: molasses based supplement remaining from last feeding ([1]; Alimet 11.4 g/d, pen 8): 35 pounds
Liquid supplement refusal: molasses based supplement remaining from last feeding ([1]; Alimet 17 g/d, pen 5): 15 pounds
Liquid supplement refusal: molasses based supplement remaining from last feeding ([1]; Alimet 22.7 g/d, pen 4, feeding date 2.19): 40 pounds
Liquid supplement refusal: molasses based supplement remaining from last feeding ([1]; Alimet 22.7 g/d, pen 4, feeding date 12.18): 20 pounds
Liquid supplement refusal: molasses based supplement remaining from last feeding ([1]; Alimet 22.7 g/d, pen 4, feeding date 12.22): 25 pounds
Liquid supplement refusal: molasses based supplement remaining from last feeding ([1]; Alimet 22.7 g/d, pen 4, feeding date 12.26): 30 pounds
Liquid supplement refusal: molasses based supplement remaining from last feeding ([1]; Alimet 22.7 g/d, pen 4, feeding date 12.29): 35 pounds
Liquid supplement refusal: molasses based supplement remaining from last feeding ([1]; Alimet 22.7 g/d, pen F, feeding date 1.22): 20 pounds
Liquid supplement refusal: molasses based supplement remaining from last feeding ([1]; Alimet 22.7 g/d, pen F, feeding date 3.01): 35 pounds
SMILES: CSCCC(O)C(=O)O (centres unmarked) [Alimet, 2-hydroxy-4-(methylthio)butanoic acid]
Daily gain, 0-28 days (full wt) [1, 3]: 1.58 lb/d
Daily gain, 0-112 days (full wt) [1, 3]: 1.61 lb/d
Daily gain, 1-113 days (shrunk wt) [1, 3]: 1.35^bc lb/d
Daily gain, 28-56 days (full wt) [1, 3]: 1.92 lb/d
Daily gain, 56-84 days (full wt) [1, 3]: 1.09 lb/d
Daily gain, 84-112 days (full wt) [1, 3]: 1.90 lb/d
Feed consumed, Hay [1, 3]: 11.23^b lb/d DM
Feed consumed, Supplement [1, 3]: 4.51^a lb/d DM
Feed consumed, Total [1, 3]: 15.74^b lb/d DM
Feed efficiency, Gain/TDN [1, 3]: .149^acd
Feed efficiency, Gain/feed DM [1, 3]: .087^c
Height change (0-112 days) [1, 3]: 2.73 in.
Daily gain, 0-28 days (full wt) [1, 4]: 1.88 lb/d
Daily gain, 0-112 days (full wt) [1, 4]: 1.53 lb/d
Daily gain, 1-113 days (shrunk wt) [1, 4]: 1.31^ab lb/d
Daily gain, 28-56 days (full wt) [1, 4]: 1.46 lb/d
Daily gain, 56-84 days (full wt) [1, 4]: .99 lb/d
Daily gain, 84-112 days (full wt) [1, 4]: 1.82 lb/d
Feed consumed, Hay [1, 4]: 10.49^b lb/d DM
Feed consumed, Supplement [1, 4]: 4.51^a lb/d DM
Feed consumed, Total [1, 4]: 14.99^b lb/d DM
Feed efficiency, Gain/TDN [1, 4]: .149^acd
Feed efficiency, Gain/feed DM [1, 4]: .088^c
Height change (0-112 days) [1, 4]: 2.45 in.
Daily gain, 0-28 days (full wt) [1, 5]: 1.77 lb/d
Daily gain, 0-112 days (full wt) [1, 5]: 1.69 lb/d
Daily gain, 1-113 days (shrunk wt) [1, 5]: 1.44^bc lb/d
Daily gain, 28-56 days (full wt) [1, 5]: 1.68 lb/d
Daily gain, 56-84 days (full wt) [1, 5]: 1.40 lb/d
Daily gain, 84-112 days (full wt) [1, 5]: 1.98 lb/d
Feed consumed, Hay [1, 5]: 11.04^b lb/d DM
Feed consumed, Supplement [1, 5]: 4.45^a lb/d DM
Feed consumed, Total [1, 5]: 15.49^b lb/d DM
Feed efficiency, Gain/TDN [1, 5]: .159^ad
Feed efficiency, Gain/feed DM [1, 5]: .094^a
Height change (0-112 days) [1, 5]: 2.80 in.
Daily gain, 0-28 days (full wt) [1, 6]: 1.24 lb/d
Daily gain, 0-112 days (full wt) [1, 6]: 1.52 lb/d
Daily gain, 1-113 days (shrunk wt) [1, 6]: 1.31^ab lb/d
Daily gain, 28-56 days (full wt) [1, 6]: 1.49 lb/d
Daily gain, 56-84 days (full wt) [1, 6]: .93 lb/d
Daily gain, 84-112 days (full wt) [1, 6]: 2.48 lb/d
Feed consumed, Hay [1, 6]: 10.49^b lb/d DM
Feed consumed, Supplement [1, 6]: 4.08^b lb/d DM
Feed consumed, Total [1, 6]: 14.57^ab lb/d DM
Feed efficiency, Gain/TDN [1, 6]: .154^d
Feed efficiency, Gain/feed DM [1, 6]: .091^a
Height change (0-112 days) [1, 6]: 2.79 in.
BCS change (0-112 days) [1, 3]: +.14
BCS change (0-112 days) [1, 4]: +.09
BCS change (0-112 days) [1, 5]: +.18
BCS change (0-112 days) [1, 6]: +.08
Added gain [1, 3]: .17 lb/d
Added gain [1, 4]: .13 lb/d
Added gain [1, 5]: .26 lb/d
Added gain [1, 6]: .13 lb/d
TDN consumed [1, 3]: 9.21^b lb/d
TDN consumed [1, 4]: 8.84^b lb/d
TDN consumed [1, 5]: 9.13^b lb/d
TDN consumed [1, 6]: 8.56^ab lb/d

SMILES: CSCCC(O)C(=O)[O-].CSCCC(O)C(=O)[O-].[Ca+2] (centres unmarked) [calcium salt of 2-hydroxy-4-(methylthio)butanoic acid]
Increase of average daily weight gain over control calves [2]: 8-10%
